Test results as given in patent US20260070911A1, “INHIBITORS OF TAM RECEPTORS” (National Health Research Institutes, priority 2022, published 2026).

How the values were obtained:
MC38 murine colon tumor = assay: Immune modulatory activity in MC38 murine colon tumor model; assay type: in vivo, C57BL/6J mice; conditions: 50 mg/kg orally twice per day for five days
Protocol: Female C57BL/6J mice between 8-10 weeks of age were used. Murine colon tumor MC38 cells were detected as free of Mycoplasma spp prior to injection into animals. MC38 cells at 10^5 cells per mouse in 100 μL culture medium were implanted subcutaneously into the left flank region of mice with a 25⅝-gauge needle (n=5-6 animals per group). […] Treatments were initiated after randomization with inclusion of tumors at approximately 150 mm^3. Tumor growths were measured with an electronic caliper and volumes are calculated as L×W×W/2. Tumor size and animal body weight were measured twice a week after tumor cell inoculation. All experiments were conducted in accordance with the protocols approved by National Health Research Institutes' Institutional Animal Care and Use Committee.
Ten days after the treatment, the tumor cells and spleen cells in the mice were collected to study effect of this compound on the immune cells, i.e., tumor-associated macrophages and T cells. Briefly, tumor and spleen from vehicle control and Compound 11 were harvested and isolated into single cells. Single cell suspension were pre-incubated with mouse Fc receptor blocker before staining with appropriate antibody conjugate for Cd45, Cd3, Cd4, Cd8, F4/80, Cd11b, Cd86, AXL, MERTK and analyzed by flow cytometry to quantify the accumulation of immune cells including Cd4 (Cd3^+Cd4^+), Cd8 (Cd3^+Cd8^+), macrophages (Cd11b^+F4/80^+), tumor associated macrophage (M2, Cd11b^+F4/80^+Cd206^+), classical macrophage (M1, Cd11b^+F4/80+/Cd86^+) populations. For intracellular staining of analysis of tumor-associated macrophage marker Cd206 expression, cells were fixed by using Cytofix/Cytoperm™ kit (BD Biosciences, Franklin Lakes, New Jersey) after surface marker staining and then stain with anti-mouse Cd206 antibody conjugate. Live/dead fixable dye were used to exclude non-viable cells from the analyses.

MC-38 murine colon tumor = assay: In vivo activity against colon tumor (MC38); parameters: species or system C57BL/6J mice; conditions: day 17 after the treatment; 50 mg/kg orally twice a day for 5 days; control 2000 mm^3
Protocol: Compound 11 was evaluated for its in vivo efficacy in treating colon tumor. Female C57BL/6J mice between 8-10 weeks of age were used. Murine colon tumor MC38 cells were detected as free of Mycoplasma spp prior to injection into animals. MC38 cells at 10^5 cells per mouse in 100 μL culture medium were implanted subcutaneously into the left flank region of mice with a 25⅝-gauge needle (n=8 animals per group). […] Treatments were initiated after randomization with inclusion of tumors at approximately 50 mm^3.
Control animals were orally administered with vehicle only. Tumor growths were measured with an electronic caliper and volumes were calculated as L×W×W/2. Tumor size and animal body weight were measured twice a week after tumor cell inoculation. After the treatment, tumor volumes and body weight changes were measured.

MDA-MB-231 TNBC cells = assay: In vivo activity against breast cancer (MDA-MB-231 xenograft); parameters: species or system NOD/SCID mice; conditions: day 35 after the treatment, from 150 mm^3 (control 600 mm^3)
Protocol: Compound 11 was further evaluated for its in vivo efficacy in treating breast cancer. MDA-MB-231 TNBC cell lines were used. Prior to injection into animals, the cancer cells were detected as free of Mycoplasma spp. Five million MDA-MB-231 cells in culture medium and matrigel (1:1, v/v) were injected subcutaneously into the left flank region of the NOD/SCID mice (n=8 animals per group). Treatments were initiated after randomization with inclusion of tumors at approximately 150 mm^3. The compound was prepared using 10% DMA: 40% PEG400:50% (1% CMC) (v/v/v).
Each group was administered orally twice a day for five days. Control animals were orally administered with vehicle only. Tumor growths were measured with an electronic caliper and volumes were calculated as L×W×W/2. Tumor size and animal body weight were measured twice a week after tumor cell inoculation.

**Q.** How did the “expression of MERTK in CD4+ T cells (spleen)” value (MC38 murine colon tumor; decreased from 7%) turn out when `Cn1cc(-c2oc3ncnc(Oc4ccc(NC(=O)c5cccn(-c6ccc(F)cc6)c5=O)cc4)c3c2-c2cccc(N)c2)cn1` [Compound 11, N-(4-{[5-(3-aminophenyl)-6-(1-methyl-1H-pyrazol-4-yl)furo[2,3-d]pyrimidin-4-yl]oxy}phenyl)-1-(4-fluorophenyl)-2-oxo-1,2-dihydropyridine-3-carboxamide] was run?
**A.** 3%

**Q.** What about the “level of M2-phenotype macrophages in the tumor cells” value (MC38 murine colon tumor; decreased from 10%) of the same molecule?
**A.** 5%

**Q.** And the “expression of AXL in CD8+ T cells (spleen)” value (MC38 murine colon tumor; decreased from 13%)?
**A.** 5%

**Q.** What about the “level of macrophages in the tumor cells” value (MC38 murine colon tumor; decreased from 18%) of the same molecule?
**A.** 13%

**Q.** And the “expression of MERTK in CD8+ T cells (spleen)” value (MC38 murine colon tumor; decreased from 32%)?
**A.** 20%

**Q.** What about the “expression of AXL in CD4+ T cells (spleen)” value (MC38 murine colon tumor; decreased from […]) of the same molecule?
**A.** 0.7%

**Q.** What about the “level of CD4+ T cells in the spleen cells” value (MC38 murine colon tumor; increased from 5%) of the same molecule?
**A.** 10%

**Q.** What about the “level of CD8+ T cells in the spleen cells” value (MC38 murine colon tumor; increased from 18%) of the same molecule?
**A.** 28%

**Q.** What about the “level of total T cells in the spleen cells” value (MC38 murine colon tumor; increased from 30%) of the same molecule?
**A.** 43%

**Q.** What about the tumor size (MC38 murine colon tumor; 10 days after treatment, from 200 mm^3 (vehicle 1000 mm^3)) of the same molecule?
**A.** 350 mm^3

**Q.** What about the tumor volume (MC-38 murine colon tumor) of the same molecule?
**A.** 300 mm^3

**Q.** What about the tumor volume (MDA-MB-231 TNBC cells; 25 mg/kg orally twice a day for five days) of the same molecule?
**A.** 300 mm^3

**Q.** And the tumor volume (MDA-MB-231 TNBC cells; 50 mg/kg orally twice a day for five days)?
**A.** 220 mm^3
